Earlier results on 3 compounds are cited in patent US11311591B2, “Use of copaifera oleoresin in pathologies of the prostate” (PIERRE FABRE MEDICAMENT, priority 2017, dated 2022).

Data set [1] has as its target T1, 5αR1 (Homo sapiens, UniProt P18405).
T1 sequence (P18405 1-259): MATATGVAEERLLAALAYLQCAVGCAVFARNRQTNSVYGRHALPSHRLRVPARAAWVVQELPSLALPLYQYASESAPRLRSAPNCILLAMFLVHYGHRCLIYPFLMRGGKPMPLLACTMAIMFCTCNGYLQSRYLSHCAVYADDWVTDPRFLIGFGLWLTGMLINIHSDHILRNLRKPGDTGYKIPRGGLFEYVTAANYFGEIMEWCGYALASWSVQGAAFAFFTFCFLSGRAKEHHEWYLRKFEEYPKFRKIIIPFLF

In data set [2] the test system is serum dihydrotestosterone.
Data set [3] addresses HSP27 (Homo sapiens, UniProt P04792). As to conditions: prior art, Phytochemistry Letters 10 (2014).

HSP27, sequence (P04792 whole entry): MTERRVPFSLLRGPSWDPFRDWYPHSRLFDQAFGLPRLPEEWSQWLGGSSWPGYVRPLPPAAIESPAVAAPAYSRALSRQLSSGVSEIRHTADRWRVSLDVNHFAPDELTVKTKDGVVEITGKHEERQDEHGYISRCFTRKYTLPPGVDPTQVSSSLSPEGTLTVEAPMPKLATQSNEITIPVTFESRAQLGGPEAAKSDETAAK

For `CC(C)(C)NC(=O)[C@H]1CC[C@H]2[C@@H]3CC[C@H]4NC(=O)C=C[C@]4(C)[C@H]3CC[C@]12C` [Finasteride], the IC50 in data set [1] is 360 nM. Also, the “reduction of mean serum dihydrotestosterone levels” value in data set [2] is on record as 70.8%.

As for `CC1CCC2(C)C(C(=O)O)=CCCC2C1(C)CCc1ccoc1` (centres unmarked) [hardwickiic acid, Hardwickiic acid], the “inhibition of HSP27 (in words)” value in data set [3] is on record as “inhibits HSP27”.

For `C[C@]12C=CC(=O)N[C@@H]1CC[C@@H]1[C@@H]2CC[C@]2(C)[C@@H](C(=O)Nc3cc(C(F)(F)F)ccc3C(F)(F)F)CC[C@@H]12` [dutasteride], the IC50 in data set [1] was 6 nM. For the same compound, the “reduction of mean serum dihydrotestosterone levels” value in data set [2] was 94.7%.
